In patent publication US20250026752A1, “POSITIVE ALLOSTERIC MODULATORS OF THE MUSCARINIC ACETYLCHOLINE RECEPTOR M4” (Vanderbilt University, priority 2021, published 2025):

Molecular target: T1, human mAChR M4 (Homo sapiens, UniProt P08173)
T1 construct: expressed in transfected cells; host or cells: CHO-K1 (ATCC), stably expressing hM4 and Gqi5
T1 sequence (P08173 1-479): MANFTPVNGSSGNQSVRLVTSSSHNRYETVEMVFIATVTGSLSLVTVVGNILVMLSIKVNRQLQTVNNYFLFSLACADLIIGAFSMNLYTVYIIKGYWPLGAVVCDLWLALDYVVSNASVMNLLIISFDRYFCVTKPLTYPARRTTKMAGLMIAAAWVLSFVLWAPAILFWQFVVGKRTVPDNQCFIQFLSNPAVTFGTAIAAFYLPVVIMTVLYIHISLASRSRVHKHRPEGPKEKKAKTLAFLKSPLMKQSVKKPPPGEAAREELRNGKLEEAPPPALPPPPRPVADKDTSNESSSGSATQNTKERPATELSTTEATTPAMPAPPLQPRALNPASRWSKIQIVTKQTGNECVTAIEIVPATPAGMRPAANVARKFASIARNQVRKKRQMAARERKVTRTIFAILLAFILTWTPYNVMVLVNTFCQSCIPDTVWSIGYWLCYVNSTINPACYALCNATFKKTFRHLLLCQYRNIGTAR
Assay: mAChR M4 cell-based functional assay: calcium flux (Fluo-4, FDSS), positive allosteric modulator activity on the EC20 acetylcholine response, hM4-Gqi5 CHO-K1 cells
Set-up: Emax: dose or concentration left out as unconfirmed
Settings: for Emax at 30 µM: CHO-K1, human M4, % ACh maximum at 30 μM; for EC50: human M4, PAM activity on EC20 acetylcholine response, calcium flux, read-out: Human M4 EC50
Outline: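 CHO-K1 cells stably expressing human M4 with chimeric Gqi5, loaded with Fluo-4 AM for 50 min at 37° C. Compounds (11-point, 1:3 dilutions) added first, then an acetylcholine EC20 at 144 s; calcium read on FDSS at 1 Hz. EC50 is the half-maximal increase above the EC20 baseline, four-parameter logistic fit.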

Row | Emax at 30 µM | EC50 | SMILES | Emax (CHO-K1)
1 | 81% | 680 nM | Fc1cccc(Oc2cnc3c(c2)CN(c2ncnc4cc(F)c(F)cc24)CC3)c1 [Compound 159, 6,7-difluoro-4-[3-(3-flurophenoxy)-7,8-dihydro-5H-1,6-naphthyridin-6-yl]quinazoline] | –
2 | 90% | 30 nM | Cc1ccc2ncnc(N3CCc4ncc(C5CC5)cc4C3)c2c1 [Compound 160, 4-(3-cyclopropyl-7,8-dihydro-5H-1,6-naphthyridin-6-yl)-6-methyl-quinazoline] | –
3 | 83% | 110 nM | COc1ccc2ncnc(N3CCc4ncc(C5CC5)cc4C3)c2c1 [Compound 161, 4-(3-cyclopropyl-7,8-dihydro-5H-1,6-naphthyridin-6-yl)-6-methoxy-quinazoline] | –
4 | 88% | 60 nM | Fc1cc2ncnc(N3CCc4ncc(C5CC5)cc4C3)c2cc1F [Compound 162, 4-(3-cyclopropyl-7,8-dihydro-5H-1,6-naphthyridin-6-yl)-6,7-difluoro-quinazoline] | –
5 | 57% | > 10000 nM | FC(F)(F)c1ccc2nc(N3CCc4ncc(C5CC5)cc4C3)nc(N3CCc4ncc(C5CC5)cc4C3)c2c1 [Compound 163, 2,4-bis(3-cyclopropyl-7,8-dihydro-5H-1,6-naphthyridin-6-yl)-6-(trifluoromethyl)quinazoline] | –
6 | 75% | 590 nM | Fc1ccc2ncnc(N3CCc4ncc(Cc5ccccc5F)cc4C3)c2c1 [Compound 164, 6-fluoro-4-[3-[(2-fluorophenyl)methyl]-7,8-dihydro-5H-1,6-naphthyridin-6-yl]quinazoline] | –
7 | 77% | 1810 nM | Cc1nc(N2CCc3ncc(C4CC4)cc3C2)c2cc(C(F)(F)F)ccc2n1 [Compound 165, 4-(3-cyclopropyl-7,8-dihydro-5H-1,6-naphthyridin-6-yl)-2-methyl-6-(trifluoromethyl)quinazoline] | –
8 | 70% | 420 nM | COc1ccc2nc(Cl)nc(N3CCc4ncc(C(F)(F)F)cc4C3)c2c1 [Compound 166, 2-chloro-6-methoxy-4-[3-(trifluoromethyl)-7,8-dihydro-5H-1,6-naphthyridin-6-yl]quinazoline] | –
9 | 72% | 350 nM | COc1cc2c(N3CCc4ncc(C(F)(F)F)cc4C3)nc(Cl)nc2cc1F [Compound 167, 2-chloro-7-fluoro-6-methoxy-4-[3-(trifluoromethyl)-7,8-dihydro-5H-1,6-naphthyridin-6-yl]quinazoline] | –
10 | 71% | 510 nM | COc1ccc2nc(C)nc(N3CCc4ncc(C(F)(F)F)cc4C3)c2c1 [Compound 168, 6-methoxy-2-methyl-4-[3-(trifluoromethyl)-7,8-dihydro-5H-1,6-naphthyridin-6-yl]quinazoline] | –
11 | 74% | 260 nM | COc1cc2c(N3CCc4ncc(C(F)(F)F)cc4C3)nc(C)nc2cc1F [Compound 169, 7-fluoro-6-methoxy-2-methyl-4-[3-(trifluoromethyl)-7,8-dihydro-5H-1,6-naphthyridin-6-yl]quinazoline] | –
12 | 82% | 490 nM | Fc1ccc(Cc2cnc3c(c2)CN(c2ncnc4ccc(F)cc24)CC3)cc1 [Compound 170, 6-fluoro-4-[3-[(4-fluorophenyl)methyl]-7,8-dihydro-5H-1,6-naphthyridin-6-yl]quinazoline] | –
13 | 50% | 1280 nM | Fc1cc2c(N3CCc4ncc(C(F)(F)F)cc4C3)nc(Cl)nc2cc1Cl [Compound 171, 2,7-dichloro-6-fluoro-4-[3-(trifluoromethyl)-7,8-dihydro-5H-1,6-naphthyridin-6-yl]quinazoline] | –
14 | 81% | 810 nM | Cc1nc(N2CCc3ncc(C(F)(F)F)cc3C2)c2cc(F)c(C)cc2n1 [Compound 172, 6-fluoro-2,7-dimethyl-4-[3-(trifluoromethyl)-7,8-dihydro-5H-1,6-naphthyridin-6-yl]quinazoline] | –
15 | 50% | 170 nM | Fc1ccc2nc(C(F)(F)F)nc(N3CCc4ncc(C(F)(F)F)cc4C3)c2c1 [Compound 173, 6-fluoro-2-(trifluoromethyl)-4-[3-(trifluoromethyl)-7,8-dihydro-5H-1,6-naphthyridin-6-yl]quinazoline] | –
16 | 82% | 140 nM | [2H]c1nc(N2CCc3ncc(-c4cnc(C)s4)cc3C2)c2cc(C)ccc2n1 [Compound 174, 5-[6-(2-deuterio-6-methyl-quinazolin-4-yl)-7,8-dihydro-5H-1,6-naphthyridin-3-yl]-2-methyl-thiazole] | –
17 | 77% | 560 nM | Cc1ccc2nc(C3CC3)nc(N3CCc4ncc(-c5cnn(C6CC6)c5)cc4C3)c2c1 [Compound 175, 2-cyclopropyl-4-[3-(1-cyclopropylpyrazol-4-yl)-7,8-dihydro-5H-1,6-naphthyridin-6-yl]-6-methyl-quinazoline] | –
18 | 73% | 740 nM | Cc1ccc2nc(C3CC3)nc(N3CCc4ncc(-c5cn(C)nc5C)cc4C3)c2c1 [Compound 176, 2-cyclopropyl-4-[3-(1,3-dimethylpyrazol-4-yl)-7,8-dihydro-5H-1,6-naphthyridin-6-yl]-6-methyl-quinazoline] | –
19 | 92% | 60 nM | Cc1ccc2nc(C)nc(N3CCc4ncc(C(F)(F)F)cc4C3)c2c1 [Compound 177, 2,6-dimethyl-4-[3-(trifluoromethyl)-7,8-dihydro-5H-1,6-naphthyridin-6-yl]quinazoline] | –
20 | 112% | 1900 nM | Fc1ccc2nc(C3CC3)nc(N3CCc4ncc(C(F)(F)F)cc4C3)c2c1 [Compound 178, 2-cyclopropyl-6-fluoro-4-[3-(trifluoromethyl)-7,8-dihydro-5H-1,6-naphthyridin-6-yl]quinazoline] | –
21 | 98% | 340 nM | COc1nc(N2CCc3ncc(C(F)(F)F)cc3C2)c2cc(C)ccc2n1 [Compound 179, 2-methoxy-6-methyl-4-[3-(trifluoromethyl)-7,8-dihydro-5H-1,6-naphthyridin-6-yl]quinazoline] | –
22 | 85% | 550 nM | Cc1ccc2nc(Nc3ccnn3C)nc(N3CCc4ncc(C(F)(F)F)cc4C3)c2c1 [Compound 181, 6-methyl-N-(2-methylpyrazol-3-yl)-4-[3-(trifluoromethyl)-7,8-dihydro-5H-1,6-naphthyridin-6-yl]quinazolin-2-amine] | –
23 | 81% | 3300 nM | Cc1nc(N2CCc3ncc(N4CCOc5ncccc54)cc3C2)c2cc(C(F)(F)F)ccc2n1 [Compound 182, 1-[6-[2-methyl-6-(trifluoromethyl)quinazolin-4-yl]-7,8-dihydro-5H-1,6-naphthyridin-3-yl]-2,3-dihydropyrido[2,3-b][1,4]oxazine] | –
24 | 71% | 260 nM | Fc1ccc2nc(N3CCOCC3)nc(N3CCc4ncc(C(F)(F)F)cc4C3)c2c1 [Compound 183, 4-[6-fluoro-4-[3-(trifluoromethyl)-7,8-dihydro-5H-1,6-naphthyridin-6-yl]quinazolin-2-yl]morpholine] | –
25 | 93% | 1380 nM | Fc1ccc2nc(NC3CC(F)(F)C3)nc(N3CCc4ncc(C(F)(F)F)cc4C3)c2c1 [Compound 184, N-(3,3-difluorocyclobutyl)-6-fluoro-4-[3-(trifluoromethyl)-7,8-dihydro-5H-1,6-naphthyridin-6-yl]quinazolin-2-amine] | –
26 | 83% | 390 nM | Cn1nccc1Nc1cnc2c(c1)CN(c1nc(N3CCOCC3)nc3ccc(F)cc13)CC2 [Compound 185, 6-(6-fluoro-2-morpholino-quinazolin-4-yl)-N-(2-methylpyrazol-3-yl)-7,8-dihydro-5H-1,6-naphthyridin-3-amine] | –
27 | 75% | > 10000 nM | FC(F)(F)c1cnc2c(c1)CN(c1nc(C3CC3)nc3ccc(Cl)cc13)CC2 [Compound 186, 6-chloro-2-cyclopropyl-4-[3-(trifluoromethyl)-7,8-dihydro-5H-1,6-naphthyridin-6-yl]quinazoline] | –
28 | 79% | 4150 nM | Cc1noc(C)c1-c1cnc2c(c1)CN(c1nc(-c3c(C)noc3C)nc3ccc(Cl)cc13)CC2 [Compound 187, 4-[6-chloro-4-[3-(3,5-dimethylisoxazol-4-yl)-7,8-dihydro-5H-1,6-naphthyridin-6-yl]quinazolin-2-yl]-3,5-dimethyl-isoxazole] | –
29 | 68% | 1910 nM | Cc1nn(C)cc1-c1cnc2c(c1)CN(c1nc(-c3cn(C)nc3C)nc3ccc(Cl)cc13)CC2 [Compound 188, 6-chloro-2-(1,3-dimethylpyrazol-4-yl)-4-[3-(1,3-dimethylpyrazol-4-yl)-7,8-dihydro-5H-1,6-naphthyridin-6-yl]quinazoline] | –

Row | SMILES | Emax at 30 µM | EC50 | Emax (CHO-K1)
30 | Cc1ccc2nc(N(C)C)nc(N3CCc4ncc(C(F)(F)F)cc4C3)c2c1 [Compound 180, N,N,6-trimethyl-4-[3-(trifluoromethyl)-7,8-dihydro-5H-1,6-naphthyridin-6-yl]quinazolin-2-amine] | – | 710 nM | 90%
